The values that follow come from US20250381110A1, “SKIN CARE COMPOSITION AND METHOD OF USING THE SAME” (THE PROCTER & GAMBLE COMPANY, priority 2024, published 2025).

Where a name gives a salt, the structure may show the parent alone.

This assay deals with p62-dependent mitophagy. In words: Luciferase-p62 assay (Fluc-p62 clearance) in mouse embryonic fibroblasts. As to conditions: for Mean Luminescence: Luciferase-p62 assay, mouse embryonic fibroblasts (MEFs), compounds at 10 μM; for % Activity over baseline: percentage of Luciferase-p62 clearance relative to baseline (mean luminescence in the absence of doxycycline induction); for % Activity over baseline / % Activity relative to Rapamycin: MEFs, 10 μM; for % Activity relative to Rapamycin: percentage of activity relative to rapamycin tested in the same experiment at the same concentration. The format is cell-based. As to the method:
To identify p62-dependent materials which increase mitophagy, a Luciferase-p62 Assay was established. This method provides an approach to measure the ability of a material to modulate p62-dependent mitophagy by using an inducible firefly luciferase-p62 (Fluc-p62) reporter cell system. In this assay, p62 levels are driven by doxycycline treatment. After levels increased, expression of Fluc-p62 is turned off by removal of doxycycline, materials are then added and assessed for how they affect clearance of Fluc-p62 protein, which is proportionate to cellular mitophagy rates (Kelly et al.). The negative control is doxycycline induced Luc-p62 in the absence of compound or bioactive material treatment and in the presence of vehicle (DMSO).
Test materials including bioactive materials were screened in mouse embryonic fibroblasts (MEFs, Harada et al.) expressing the TET-inducible p62-fluc construct as previously described (Brown et al.). […] Gibson assembly was used to insert firefly luciferase (Fluc) and p62 into the pCW57.1 backbone. Fluc, p62, and pCW57.1 were polymerase chain reaction (PCR) amplified using pfu polymerase (Life technologies) and Gibson assembly primers with 20 base pair (bp) overhangs. PCR products were separated by agarose gel electrophoreses, and fragments excised and purified before use in DNA assembly reaction with NEBuilder HiFi DNA Assembly kit (New England Biolabs). After the assembly, the reaction mix was transformed into NEB3040 Stable Competent Escherichia coli (New England Biolabs). After 24 hours growth at 31 degrees Celsius the plasmid was extracted using QIAprep Spin Miniprep kit (Qiagen). The plasmid was sequenced to confirm correct insertion of Fluc-p62. To generate MEFs stably expressing doxycycline inducible Fluc-p62, HEK293FT cells were transfected with Fluc-p62-pCW57.1 and the ViraPower Packaging Mix (Invitrogen) to produce lentivirus. MEFs were transduced with the obtained lentiviral stock following followed by selection with 1 microgram per milliliter puromycin.Fluc-p62expressing MEFs were maintained in DMEM supplemented with 10 percent fetal bovine serum (FBS), 100 units per milliliter penicillin/streptomycin, and 2 millimolar L-glutamine in a humidified atmosphere containing 5 percent carbon dioxide at 37 degrees Celsius. Cells were plated into white 96 well plates (2,000 cells per well with 100 microliters media) and allowed to settle for 24 hours. […] Subsequently, cells were treated with test materials for 48 hours in normal growth medium and analysed using ONE-Glo™+Tox Luciferase Reporter and Cell Viability Assay (Promega) by following the manufacturer's protocol.
Test compositions and control compositions were prepared as described above in the Luciferase-p62 assay (Method 3) and tested accordingly. The compounds used in this example, as examples of bioactive materials, were from the APExBIO DiscoveryProbe™ Natural Product Library Plus (Houston, TX) and evaluated at equivalent concentrations (10 μM).
Data are additionally calculated as percentage of activity relative to rapamycin, a benchmark control compound tested in the same experiment.

For the molecule `CC(Cc1ccc(O)c(O)c1)C(C)Cc1ccc(O)c(O)c1` (stereo not drawn) [Nordihydroguaiaretic acid], the “Mean Luminescence” value worked out at 964.84, the “% Activity over baseline” value was determined as 40.37% and the “% Activity relative to Rapamycin” value is listed as 72.74%.

With `O=C(O)CC(=O)O` [Malonic acid], the “Mean Luminescence” value is 865.42, the “% Activity over baseline” value was found to be 46.52% and the “% Activity relative to Rapamycin” value is 83.81%.

`CN(C)CCn1nnnc1SCC1=C(C(=O)O)N2C(=O)[C@@H](NC(=O)Cc3csc(N)n3)[C@H]2SC1` [Cefotiam hydrochloride]: the “Mean Luminescence” value amounted to 993.62, the “% Activity over baseline” value stood at 38.59% and the “% Activity relative to Rapamycin” value was 69.54%.

As for `CN1[C@@H]2CC[C@H]1CC(=O)C2` [Tropinone], the “Mean Luminescence” value amounted to 896.55, the “% Activity over baseline” value turned out to be 44.59% and the “% Activity relative to Rapamycin” value was found to be 80.34%.

As for `CN1CCN2c3ccccc3Cc3ccccc3C2C1` (stereo not drawn) [Mianserin HCl], the “Mean Luminescence” value stood at 960.23, the “% Activity over baseline” value was 40.66% and the “% Activity relative to Rapamycin” value amounted to 73.25%.

Take `Cc1ccc(C(C)C)cc1O` [Carvacrol]: the “Mean Luminescence” value stood at 937.62, the “% Activity over baseline” value is 42.05% and the “% Activity relative to Rapamycin” value stood at 75.77%.

On to `OC[C@@H](O)[C@@H](O)CO` [Erythritol], for which the “Mean Luminescence” value turned out to be 696.09, the “% Activity over baseline” value is listed as 56.98% and the “% Activity relative to Rapamycin” value was 102.67%.

As for `CC1=C[C@]23C(=O)[C@@H](C=C(CO)[C@@H](O)[C@]2(O)[C@H]1O)[C@H]1[C@@H](C[C@H]3C)C1(C)C` [Ingenol], the “Mean Luminescence” value stood at 930.73, the “% Activity over baseline” value is listed as 42.48% and the “% Activity relative to Rapamycin” value was found to be 76.54%.

As for `CC1=C(/C=C/C(C)=C/C=C/C(C)=C/C=O)C(C)(C)CCC1` [all-trans Retinal], the “Mean Luminescence” value is on record as 967.12, the “% Activity over baseline” value turned out to be 40.23% and the “% Activity relative to Rapamycin” value is 72.49%.

With `CC(CC(=O)O)CC(=O)O` [3-Methylglutaric acid], the “Mean Luminescence” value stood at 818.33, the “% Activity over baseline” value came to 49.43% and the “% Activity relative to Rapamycin” value was 89.05%.

In the case of `COc1ccc2cc3[n+](cc2c1O)CCc1cc2c(cc1-3)OCO2` [Berberrubine], the “Mean Luminescence” value was 766.18, the “% Activity over baseline” value is listed as 52.65% and the “% Activity relative to Rapamycin” value came to 94.86%.

Take `CNC[C@H](O)[C@@H](O)[C@H](O)[C@H](O)CO.CNC[C@H](O)[C@@H](O)[C@H](O)[C@H](O)CO.C[C@@H](O[C@H]1OCCN(Cc2nn(P(=O)(O)O)c(=O)[nH]2)[C@H]1c1ccc(F)cc1)c1cc(C(F)(F)F)cc(C(F)(F)F)c1` [Fosaprepitant dimeglumine salt]: the “Mean Luminescence” value stood at 756.54, the “% Activity over baseline” value came to 53.24% and the “% Activity relative to Rapamycin” value is given as 95.93%.

In the case of `O=c1ccn([C@@H]2O[C@H](CO)[C@@H](O)[C@H]2O)c(=O)[nH]1` [Uridine], the “Mean Luminescence” value is reported as 955.62, the “% Activity over baseline” value was 40.94% and the “% Activity relative to Rapamycin” value is 73.77%.

Consider `CC(=O)O[C@H]1C(=O)[C@@]2(C)[C@H]([C@H](OC(=O)c3ccccc3)[C@]3(O)C[C@H](OC(=O)[C@H](O)[C@@H](NC(=O)c4ccccc4)c4ccccc4)C(C)=C1C3(C)C)[C@]1(OC(C)=O)CO[C@@H]1C[C@@H]2O` [Compound 7-Epitaxol], for which the “Mean Luminescence” value worked out at 968.61, the “% Activity over baseline” value amounted to 40.14% and the “% Activity relative to Rapamycin” value is on record as 72.32%.

As to `N[C@@H](Cc1cc(I)c(Oc2cc(I)c(O)c(I)c2)c(I)c1)C(=O)O` [Levothyroxine sodium], the “Mean Luminescence” value was determined as 974.14, the “% Activity over baseline” value came to 39.80% and the “% Activity relative to Rapamycin” value is on record as 71.71%.

Turning to `CC(=O)NCCc1c[nH]c2ccc(O)cc12` [N-Acetylserotonin], the “Mean Luminescence” value amounted to 978.08, the “% Activity over baseline” value was 39.55% and the “% Activity relative to Rapamycin” value amounted to 71.27%.

Take `CN(CC(=O)O)C(=N)N.O` [Creatine monohydrate]: the “Mean Luminescence” value amounted to 901.68, the “% Activity over baseline” value was found to be 44.28% and the “% Activity relative to Rapamycin” value was found to be 79.77%.

On to `CO/N=C(\C(=O)N[C@@H]1C(=O)N2C(C(=O)O)=C(Cn3ccc(=N)n3CCO)CS[C@H]12)c1csc(N)n1.O=S(=O)(O)O` [Cefoselis Sulfate], for which the “Mean Luminescence” value is 937.12, the “% Activity over baseline” value is 42.09% and the “% Activity relative to Rapamycin” value was 75.83%.

As for `CO[C@H]1O[C@@H]2O[C@@]3(C)CC[C@H]4[C@H](C)CC[C@@H]([C@H]1C)[C@@]24OO3` [Artemether (SM-224)], the “Mean Luminescence” value was 596.56, the “% Activity over baseline” value is recorded as 63.13% and the “% Activity relative to Rapamycin” value worked out at 113.75%.

Take `C=C1CC[C@@H]2[C@](C)(CO)[C@H](O)CC[C@@]2(C)[C@@H]1C/C=C1/C(=O)OC[C@H]1O` [Andrographolide]: the “Mean Luminescence” value worked out at 818.97, the “% Activity over baseline” value stood at 49.39% and the “% Activity relative to Rapamycin” value stood at 88.98%.

`C[C@]12C[C@H](O)[C@H]3[C@@H](CCC4=CC(=O)CC[C@@]43C)[C@@H]1CC[C@@H]2C(=O)CO` [Corticosterone]: the “Mean Luminescence” value was determined as 870.00, the “% Activity over baseline” value is 46.23% and the “% Activity relative to Rapamycin” value was found to be 83.30%.

On to `NC(=O)Cc1ccccc1` [Compound 2-Phenylacetamide, 2-Phenylacetamide], for which the “Mean Luminescence” value is 861.95, the “% Activity over baseline” value worked out at 46.73% and the “% Activity relative to Rapamycin” value turned out to be 84.20%.

In the case of Picrotoxin, the “Mean Luminescence” value came out at 868.69, the “% Activity over baseline” value is listed as 46.31% and the “% Activity relative to Rapamycin” value is 83.45%.

In the case of `O=c1oc2cc(O)ccc2c2ccc(O)cc12` [Urolithin A], the “Mean Luminescence” value was 884.12, the “% Activity over baseline” value was 45.36% and the “% Activity relative to Rapamycin” value was found to be 81.73%.

Consider `CC(C)=CCOc1ccc(/C=C/C(=O)c2ccc(OCC=C(C)C)cc2OCC(=O)O)cc1` [Sofalcone], for which the “Mean Luminescence” value was determined as 760.95, the “% Activity over baseline” value was 52.97% and the “% Activity relative to Rapamycin” value stood at 95.44%.

In the case of `COc1cc(NS(=O)(=O)c2ccc(N)cc2)nc(OC)n1` [Sulfadimethoxine], the “Mean Luminescence” value is on record as 821.82, the “% Activity over baseline” value is 49.21% and the “% Activity relative to Rapamycin” value is on record as 88.67%.

For `CS(=O)(=O)CCNCc1ccc(-c2ccc3ncnc(Nc4ccc(OCc5cccc(F)c5)c(Cl)c4)c3c2)o1` [Lapatinib Ditosylate], the “Mean Luminescence” value turned out to be 578.14, the “% Activity over baseline” value is given as 64.27% and the “% Activity relative to Rapamycin” value came to 115.80%.

For `CCCNC(C)C(=O)Nc1ccccc1C` (stereo not drawn) [Prilocaine], the “Mean Luminescence” value came out at 905.23, the “% Activity over baseline” value was found to be 44.06% and the “% Activity relative to Rapamycin” value is recorded as 79.38%.

Regarding `CCN(CC)c1ccc(/C=N/NC(=O)c2ccc(O)cc2)cc1` [DY131], the “Mean Luminescence” value is listed as 878.41, the “% Activity over baseline” value was found to be 45.71% and the “% Activity relative to Rapamycin” value stood at 82.36%.

As for `CCCCCOC(=O)Nc1nc(=O)n([C@@H]2O[C@H](C)[C@@H](O)[C@H]2O)cc1F` [Capecitabine], the “Mean Luminescence” value is 918.89, the “% Activity over baseline” value was 43.21% and the “% Activity relative to Rapamycin” value amounted to 77.86%.

In the case of `C[C@]12CCC(=O)C=C1CC[C@@H]1[C@@H]2[C@@H](O)C[C@@]2(C)[C@H]1CC[C@]2(O)C(=O)CO` [Hydrocortisone], the “Mean Luminescence” value is 801.04, the “% Activity over baseline” value is listed as 50.50% and the “% Activity relative to Rapamycin” value is given as 90.98%.

As for `O=C1C=CC(=O)C=C1` [1,4-Benzoquinone], the “Mean Luminescence” value stood at 422.02, the “% Activity over baseline” value is recorded as 73.92% and the “% Activity relative to Rapamycin” value came to 133.18%.
